Laboratory results: patent EP0377642B1, “HERBICIDES FOR WEED CONTROL IN RICE” (E.I. DU PONT DE NEMOURS AND COMPANY, priority 1987, dated 1989)

Tests used:
Type in all cases: in vivo
[1] = system: Cyperus species; assay: Field test, herbicidal efficacy in rice, Thailand, applied 36 days after seeding (Table 1); conditions: 100=complete control
Text: (§1) Methyl 2-[[[[(4-methoxy-6-methyl-1,3,5-triazin-2-yl)amino]carbonyl]amino]sulfonyl]benzoate (Compound 1) and mixtures thereof with other compounds were applied as a spray (using a hand sprayer) to rice (either transplanted or direct seeded) in several rice growing areas in Southeast Asia and in the U.S. Tables 1-28 contain the results of these tests and clearly exemplify the utility of this invention. The details of each application are included in the appropriate table. [drawing 2]

[2] = system: Sphenoclea zeylanica; assay: as above; conditions: 100=complete control
Text: as §1

[3] = system: rice; assay: Effects on rice growth in Thailand, phytotoxicity (Table 4); conditions: scale 0-10
Text: as §1

[4] = system: CI; assay: Herbicidal efficacy in relation to application timing in Indonesia (Table 5)
Text: as §1

[5] = system: transplanted rice; assay: Crop tolerance of transplanted rice (Table 7); conditions: rating 0-10
Text: as §1

[6] = system: Cyperus difformis; assay: Herbicidal efficacy alone and with 2,4-D in Malaysia, applied 30 days after seeding (Table 8); conditions: 22 days after treatment
Text: as §1

[7] = system: FIMBRISTYLIS MILIACEA; assay: as above; conditions: 22 days after treatment
Text: as §1

[8] = system: Marsilea crenata; assay: as above; conditions: 22 days after treatment
Text: as §1

[9] = system: Monochoria vaginalis; assay: as above; conditions: 22 days after treatment
Text: as §1

[10] = system: Scirpus grossus; assay: as above; conditions: 22 days after treatment
Text: as §1

[11] = system: Sphenoclea zeylanica; assay: as above; conditions: 22 days after treatment
Text: as §1

[12] = system: weeds; assay: Greenhouse test of Compound 1 and Compound 2, herbicidal efficacy (Table 26); conditions: rated 24 days after treatment; for % CONTROL OR INJURY AT: Alisma triviale; for % CONTROL OR INJURY AP: Alternanthera philoxeroides; for % CONTROL OR INJURY CD: Cyperus difformis; for % CONTROL OR INJURY SR: Sagittaria rigida
Text: as §1

## COC(=O)c1ccccc1S(=O)(=O)NC(=O)Nc1nc(C)nc(OC)n1 [Compound 1, Methyl 2-[[[[(4-methoxy-6-methyl-1,3,5-triazin-2-yl)amino]carbonyl]amino]sulfonyl]benzoate]
[1]; Trial 1, 2 GAI/HA
  Herbicidal efficacy CY 2WAA: 33
[1]; Trial 1, 3 GAI/HA
  Herbicidal efficacy CY 2WAA: 67
[1]; Trial 1, 4 GAI/HA
  Herbicidal efficacy CY 2WAA: 67
[1]; Trial 1, 6 GAI/HA
  Herbicidal efficacy CY 2WAA: 67
[1]; Trial 2, 2 GAI/HA
  Herbicidal efficacy CY 2WAA: 0
[1]; Trial 2, 3 GAI/HA
  Herbicidal efficacy CY 2WAA: 67
[1]; Trial 2, 4 GAI/HA
  Herbicidal efficacy CY 2WAA: 33
[1]; Trial 2, 6 GAI/HA
  Herbicidal efficacy CY 2WAA: 67
[2]; Trial 1, 2 GAI/HA
  Herbicidal efficacy SZ 2WAA: 100
  Herbicidal efficacy SZ 4WAA: 100
  Herbicidal efficacy SZ 6WAA: 100
[2]; Trial 1, 3 GAI/HA
  Herbicidal efficacy SZ 2WAA: 99
  Herbicidal efficacy SZ 4WAA: 100
  Herbicidal efficacy SZ 6WAA: 100
[2]; Trial 1, 4 GAI/HA
  Herbicidal efficacy SZ 2WAA: 100
  Herbicidal efficacy SZ 4WAA: 100
  Herbicidal efficacy SZ 6WAA: 100
[2]; Trial 1, 6 GAI/HA
  Herbicidal efficacy SZ 2WAA: 100
  Herbicidal efficacy SZ 4WAA: 100
  Herbicidal efficacy SZ 6WAA: 100
[2]; Trial 2, 2 GAI/HA
  Herbicidal efficacy SZ 2WAA: 97
  Herbicidal efficacy SZ 4WAA: 99
  Herbicidal efficacy SZ 6WAA: 99
[2]; Trial 2, 3 GAI/HA
  Herbicidal efficacy SZ 2WAA: 100
  Herbicidal efficacy SZ 4WAA: 100
  Herbicidal efficacy SZ 6WAA: 100
[2]; Trial 2, 4 GAI/HA
  Herbicidal efficacy SZ 2WAA: 99
  Herbicidal efficacy SZ 4WAA: 99
  Herbicidal efficacy SZ 6WAA: 100
[2]; Trial 2, 6 GAI/HA
  Herbicidal efficacy SZ 2WAA: 100
  Herbicidal efficacy SZ 4WAA: 100
  Herbicidal efficacy SZ 6WAA: 100
[3]; applied 7 DAS, 3 GAI/HA
  PHYTOTOXICITY: 1.67
[3]; applied 7 DAS, 6 GAI/HA
  PHYTOTOXICITY: 1.67
[3]; applied 14 DAS, 3 GAI/HA
  PHYTOTOXICITY: 1.0
[3]; applied 14 DAS, 6 GAI/HA
  PHYTOTOXICITY: 1.0
[3]; applied 21 DAS, 3 GAI/HA
  PHYTOTOXICITY: 0.67
[3]; applied 21 DAS, 6 GAI/HA
  PHYTOTOXICITY: 1.0
[3]; applied 28 DAS, 3 GAI/HA
  PHYTOTOXICITY: 0
[3]; applied 28 DAS, 6 GAI/HA
  PHYTOTOXICITY: 0
[4]; 3 WAT, 2 GAI/HA, evaluation 1
  % CONTROL CI: 0%
[4]; 3 WAT, 2 GAI/HA, evaluation 2
  % CONTROL CI: 0%
[4]; 3 WAT, 2 GAI/HA, evaluation 3
  % CONTROL CI: 0%
[4]; 3 WAT, 3 GAI/HA, evaluation 1
  % CONTROL CI: 20%
[4]; 3 WAT, 3 GAI/HA, evaluation 2
  % CONTROL CI: 0%
[4]; 3 WAT, 3 GAI/HA, evaluation 3
  % CONTROL CI: 0%
[4]; 3 WAT, 4 GAI/HA, evaluation 1
  % CONTROL CI: 20%
[4]; 3 WAT, 4 GAI/HA, evaluation 2
  % CONTROL CI: 0%
[4]; 3 WAT, 4 GAI/HA, evaluation 3
  % CONTROL CI: 0%
[4]; 3 WAT, 6 GAI/HA, evaluation 1
  % CONTROL CI: 20%
[4]; 3 WAT, 6 GAI/HA, evaluation 2
  % CONTROL CI: 0%
[4]; 3 WAT, 6 GAI/HA, evaluation 3
  % CONTROL CI: 0%
[4]; 3 WAT, 8 GAI/HA, evaluation 1
  % CONTROL CI: 20%
[4]; 3 WAT, 8 GAI/HA, evaluation 2
  % CONTROL CI: 0%
[4]; 3 WAT, 8 GAI/HA, evaluation 3
  % CONTROL CI: 0%
[4]; 4 WAT, 2 GAI/HA, evaluation 1
  % CONTROL CI: 0%
[4]; 4 WAT, 2 GAI/HA, evaluation 2
  % CONTROL CI: 0%
[4]; 4 WAT, 2 GAI/HA, evaluation 3
  % CONTROL CI: 0%
[4]; 4 WAT, 3 GAI/HA, evaluation 1
  % CONTROL CI: 0%
[4]; 4 WAT, 3 GAI/HA, evaluation 2
  % CONTROL CI: 0%
[4]; 4 WAT, 3 GAI/HA, evaluation 3
  % CONTROL CI: 0%
[4]; 4 WAT, 4 GAI/HA, evaluation 1
  % CONTROL CI: 20%
[4]; 4 WAT, 4 GAI/HA, evaluation 2
  % CONTROL CI: 20%
[4]; 4 WAT, 4 GAI/HA, evaluation 3
  % CONTROL CI: 0%
[4]; 4 WAT, 6 GAI/HA, evaluation 1
  % CONTROL CI: 20%
[4]; 4 WAT, 6 GAI/HA, evaluation 2
  % CONTROL CI: 20%
[4]; 4 WAT, 6 GAI/HA, evaluation 3
  % CONTROL CI: 0%
[4]; 4 WAT, 8 GAI/HA, evaluation 1
  % CONTROL CI: 20%
[4]; 4 WAT, 8 GAI/HA, evaluation 2
  % CONTROL CI: 20%
[4]; 4 WAT, 8 GAI/HA, evaluation 3
  % CONTROL CI: 0%
[4]; 5 WAT, 2 GAI/HA, evaluation 1
  % CONTROL CI: 0%
[4]; 5 WAT, 2 GAI/HA, evaluation 2
  % CONTROL CI: 0%
[4]; 5 WAT, 2 GAI/HA, evaluation 3
  % CONTROL CI: 0%
[4]; 5 WAT, 3 GAI/HA, evaluation 1
  % CONTROL CI: 50%
[4]; 5 WAT, 3 GAI/HA, evaluation 2
  % CONTROL CI: 20%
[4]; 5 WAT, 3 GAI/HA, evaluation 3
  % CONTROL CI: 0%
[4]; 5 WAT, 4 GAI/HA, evaluation 1
  % CONTROL CI: 60%
[4]; 5 WAT, 4 GAI/HA, evaluation 2
  % CONTROL CI: 30%
[4]; 5 WAT, 4 GAI/HA, evaluation 3
  % CONTROL CI: 0%
[4]; 5 WAT, 6 GAI/HA, evaluation 1
  % CONTROL CI: 60%
[4]; 5 WAT, 6 GAI/HA, evaluation 2
  % CONTROL CI: 40%
[4]; 5 WAT, 6 GAI/HA, evaluation 3
  % CONTROL CI: 0%
[4]; 5 WAT, 8 GAI/HA, evaluation 1
  % CONTROL CI: 60%
[4]; 5 WAT, 8 GAI/HA, evaluation 2
  % CONTROL CI: 60%
[4]; 5 WAT, 8 GAI/HA, evaluation 3
  % CONTROL CI: 30%
[5]; 3 GAI/HA, 1 WAA
  CROP TOLERANCE: 0
[5]; 3 GAI/HA, 2WAA
  CROP TOLERANCE: 0
[5]; 3 GAI/HA, 4WAA
  CROP TOLERANCE: 0
[5]; 3 GAI/HA, 6WAA
  CROP TOLERANCE: 0
[5]; 4 GAI/HA, 1 WAA
  CROP TOLERANCE: 0
[5]; 4 GAI/HA, 2WAA
  CROP TOLERANCE: 0
[5]; 4 GAI/HA, 4WAA
  CROP TOLERANCE: 0
[5]; 4 GAI/HA, 6WAA
  CROP TOLERANCE: 0
[5]; 6 GAI/HA, 1 WAA
  CROP TOLERANCE: 1
[5]; 6 GAI/HA, 2WAA
  CROP TOLERANCE: 0
[5]; 6 GAI/HA, 4WAA
  CROP TOLERANCE: 0
[5]; 6 GAI/HA, 6WAA
  CROP TOLERANCE: 0
[5]; 8 GAI/HA, 1 WAA
  CROP TOLERANCE: 1
[5]; 8 GAI/HA, 2WAA
  CROP TOLERANCE: 1
[5]; 8 GAI/HA, 4WAA
  CROP TOLERANCE: 0
[5]; 8 GAI/HA, 6WAA
  CROP TOLERANCE: 0
[6]; 1 GAI/HA
  % CONTROL CD: 0%
[6]; 2 GAI/HA
  % CONTROL CD: 100%
[6]; 3 GAI/HA
  % CONTROL CD: 95%
[6]; 4 GAI/HA
  % CONTROL CD: 100%
[6]; 5 GAI/HA
  % CONTROL CD: 100%
[7]; 1 GAI/HA
  % CONTROL FM: 0%
[7]; 2 GAI/HA
  % CONTROL FM: 100%
[7]; 3 GAI/HA
  % CONTROL FM: 50%
[7]; 4 GAI/HA
  % CONTROL FM: 50%
[7]; 5 GAI/HA
  % CONTROL FM: 20%
[8]; 1 GAI/HA
  % CONTROL MC: 20%
[8]; 2 GAI/HA
  % CONTROL MC: 95%
[8]; 3 GAI/HA
  % CONTROL MC: 100%
[8]; 4 GAI/HA
  % CONTROL MC: 95%
[8]; 5 GAI/HA
  % CONTROL MC: 100%
[9]; 1 GAI/HA
  % CONTROL MV: 95%
[9]; 2 GAI/HA
  % CONTROL MV: 95%
[9]; 3 GAI/HA
  % CONTROL MV: 100%
[9]; 4 GAI/HA
  % CONTROL MV: 100%
[9]; 5 GAI/HA
  % CONTROL MV: 100%
[10]; 1 GAI/HA
  % CONTROL SG: 80%
[10]; 2 GAI/HA
  % CONTROL SG: 100%
[10]; 3 GAI/HA
  % CONTROL SG: 95%
[10]; 4 GAI/HA
  % CONTROL SG: 95%
[10]; 5 GAI/HA
  % CONTROL SG: 100%
[11]; 1 GAI/HA
  % CONTROL SZ: 0%
[11]; 2 GAI/HA
  % CONTROL SZ: 100%
[11]; 3 GAI/HA
  % CONTROL SZ: 100%
[11]; 4 GAI/HA
  % CONTROL SZ: 100%
[11]; 5 GAI/HA
  % CONTROL SZ: 100%
[12]; rate 1 g ai/ha
  % CONTROL OR INJURY AT: 80%
  % CONTROL OR INJURY AP: 0%
  % CONTROL OR INJURY CD: 60%
  % CONTROL OR INJURY SR: 90%
[12]; rate 2 g ai/ha
  % CONTROL OR INJURY AT: 95%
  % CONTROL OR INJURY AP: 0%
  % CONTROL OR INJURY CD: 60%
  % CONTROL OR INJURY SR: 95%
[12]; rate 4 g ai/ha
  % CONTROL OR INJURY AT: 95%
  % CONTROL OR INJURY AP: 60%
  % CONTROL OR INJURY CD: 80%
  % CONTROL OR INJURY SR: 95%
[12]; rate 8 g ai/ha
  % CONTROL OR INJURY AT: 95%
  % CONTROL OR INJURY AP: 70%
  % CONTROL OR INJURY CD: 100%
  % CONTROL OR INJURY SR: 95%
